Values quoted from earlier work as cited in patent US20210322464A1 (priority 2020, published 2021).

Settings: 1000 μg per day, constant syringe pump infusion for 14 days; cited from earlier work

In the case of O=[Se](O)O [sodium selenite], the adverse effects is listed as “No adverse effects”.
